In PubChem BioAssay (NCI):
Several values for one entry are separate records, joined by “and”; a condition that tells them apart may be missing. Equal values may be shown once.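 Briefly, cells in 96-well plates were exposed to five compound concentrations for 48 h, and endpoints were estimated by linear interpolation. Here, GI50 denotes the concentration required for 50% inhibition of growth. TGI is the concentration that stops growth completely.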

Legend:
Assay in all cases: inhibition of tumour cell growth, NCI panel, 48 h
RXF 393 renal = test system: RXF 393 renal
M14 melanoma = test system: M14 melanoma
K-562 leukemia = test system: K-562 leukemia
TK-10 renal = test system: TK-10 renal
OVCAR-4 ovarian = test system: OVCAR-4 ovarian
OVCAR-3 ovarian = test system: OVCAR-3 ovarian
SK-MEL-5 melanoma = test system: SK-MEL-5 melanoma
HOP-62 NSCLC = test system: HOP-62 NSCLC
NCI/ADR-RES ovarian = test system: NCI/ADR-RES ovarian
T-47D breast = test system: T-47D breast

Compound	TGI (RXF 393 renal)	TGI (M14 melanoma)	TGI (K-562 leukemia)	TGI (TK-10 renal)	TGI (OVCAR-4 ovarian)	TGI (OVCAR-3 ovarian)	TGI (SK-MEL-5 melanoma)	TGI (HOP-62 NSCLC)	GI50 (K-562 leukemia)	GI50 (M14 melanoma)	GI50 (NCI/ADR-RES ovarian)	TGI (NCI/ADR-RES ovarian)	GI50 (TK-10 renal)	GI50 (OVCAR-4 ovarian)	GI50 (OVCAR-3 ovarian)	GI50 (HOP-62 NSCLC)	GI50 (T-47D breast)	TGI (T-47D breast)	GI50 (SK-MEL-5 melanoma)	GI50 (RXF 393 renal)
NC(=O)CN(CC(N)=O)C(N)=O	> 100 µM	> 100 µM	> 100 µM	> 100 µM	> 100 µM	> 100 µM	> 100 µM													
N/N=C(/C(=O)Nc1cccc(Cl)c1)C(C(=O)c1ccc(O)cc1O)C1OC(=O)c2ccccc21 (centres undefined)		> 100 µM	> 100 µM	> 100 µM	> 100 µM	> 100 µM	> 100 µM	> 100 µM												
CCOC(=O)/C(C1=NCCN1)=C(\O)c1ccccc1	> 100 µM	> 100 µM	> 100 µM		> 100 µM	> 100 µM	> 100 µM	> 100 µM												
COc1ccc(/C=C/c2cc(OC)c(OC)c(OC)c2)cc1	2.62 µM	> 100 µM	> 100 µM	> 100 µM	> 100 µM	17.7 µM	> 85.4 µM	60.1 µM	34 µM											
CSc1nnc(CCC(=O)Nc2c(C)cccc2C)o1	> 100 µM	> 100 µM	> 100 µM	> 100 µM	> 100 µM	> 100 µM	> 100 µM	> 100 µM												
CC(CN(C)C)/C(=N\Nc1ccccc1)c1ccccc1 (centres undefined)	65.4 µM	16.8 µM	0.527 µM	5.56 µM	19.8 µM	6.83 µM	17.5 µM	12 µM												
O=C(O)CC[C@H](NC(=O)c1ccc(-n2nc3ccc(O)cc3nc2=O)cc1)C(=O)O	> 100 µM	> 100 µM	> 100 µM	> 100 µM	> 100 µM	> 100 µM	> 100 µM	> 100 µM												
CC(=O)Nc1ccc(S(=O)(=O)N/N=C/CN2C(=O)c3ccccc3C2=O)cc1	> 100 µM	> 100 µM	> 100 µM	> 100 µM	> 100 µM		> 100 µM	> 100 µM												
Cc1cc(NCCCN(C)C)c2ccc3c(ccc4c(NCCCN(C)C)cc(C)nc43)c2n1		0.397 µM	> 100 µM	0.573 µM	0.508 µM	0.444 µM	0.945 µM	0.489 µM	0.454 µM	0.194 µM	0.583 µM	3.38 µM	0.24 µM	0.162 µM	0.191 µM	0.196 µM	0.521 µM	2.54 µM	0.275 µM	
COc1ccc2c(CN3CCCC[C@H]3C(=O)O)cc3cc4c(cc3c2c1)OCO4	2.03 µM	10.5 µM	11.1 µM	60.2 µM		3.41 µM	2.5 µM	> 100 µM	1.5 µM	3.72 µM	7.11 µM	65.7 µM	5.47 µM		0.688 µM	4.33 µM	2.05 µM	8.04 µM	1.25 µM	0.414 µM
C=C/C=C/NC(=O)OCc1ccccc1	> 100 µM	> 100 µM	> 100 µM	> 100 µM	> 100 µM	> 100 µM	> 100 µM	> 100 µM												
COc1cc2c[n+](C)c3c4cc(OC)c(OC(C)C)cc4ccc3c2cc1OC	> 100 µM	> 100 µM	> 100 µM	> 100 µM	> 100 µM	63.8 µM	> 100 µM	> 100 µM												
COc1cc(OC)c(C/C=C/c2ccccc2)cc1O		38 µM	33 µM	29.9 µM	33.5 µM	31.1 µM	29.3 µM					31.4 µM						23.7 µM		
C=CCN=C(N/N=C/c1ccc([N+](=O)[O-])o1)NS(=O)(=O)c1cc(C(=O)Nc2ccc(Cl)cc2)c(Cl)cc1SC		> 21.6 µM	> 21.2 µM	> 100 µM	> 34.1 µM	14.1 µM	4.82 µM	7.32 µM	2.41 µM	3.09 µM	> 100 µM	> 100 µM	> 90.8 µM		1.57 µM	1.8 µM	5.96 µM	> 51.5 µM	2.14 µM	
COc1ccc2c(c1)C(=O)c1ccc(OC)cc1C2=S	> 100 µM	> 100 µM	> 100 µM	> 100 µM		> 100 µM	> 100 µM	> 100 µM												
CC1=NN(C(=O)c2ccccc2O)C(=O)/C1=C/c1ccc(O)cc1		22.4 µM	> 100 µM	> 100 µM	> 100 µM	3.43 µM	> 100 µM	> 100 µM				28.3 µM						> 100 µM		
CC[C@@]1(O)C(=O)OCc2c1cc1n(c2=O)Cc2cc3cc4c(cc3nc2-1)OCO4	0.0831 µM		> 100 µM	2.79 µM and 17.3 µM		0.0793 µM	0.0721 µM and < 0.0281 µM		< 0.0114 µM			> 100 µM	0.111 µM		0.0135 µM			0.427 µM		< 0.0267 µM
Cc1nc(Nc2ccccc2)sc1C(=O)CC(=O)C(=O)Nc1c(C(C)C)cccc1C(C)C	> 100 µM	> 100 µM	> 100 µM	> 100 µM	> 100 µM	> 100 µM	> 100 µM	> 100 µM												
O=[N+]([O-])c1ccc(-n2nnc(C3=NCCN3)c2-c2ccccc2)cc1	> 100 µM	> 100 µM	> 100 µM	> 100 µM	> 100 µM	> 100 µM	> 100 µM	> 100 µM												
C=Cc1cncc(C#N)c1CCc1c(C#N)cncc1C=C	> 100 µM	> 100 µM	> 100 µM	> 100 µM	> 10 µM	> 100 µM	> 100 µM	> 100 µM	> 100 µM	> 100 µM			> 100 µM		> 100 µM	> 100 µM			> 100 µM	> 10 µM
O=C1C=CC(=O)C2=C1[C@@H](O)C1CC=CC3C(=O)O[C@@H]2C31 (some centres undefined)	33.9 µM	36 µM	> 61.5 µM	> 58.1 µM	17.7 µM	36.8 µM	41.2 µM	> 100 µM												
